# From the METLIN SMRT retention time set (Domingo-Almenara et al. 2019)
# Experiment: gradient 5% acetonitrile 3 min, to 50% in 2 min, to 85% in 15 min, held 3 min, 100 µL/min
# Conditions: column: Zorbax Extend-C18 2.1 x 50 mm; eluents: water / acetonitrile, 0.1% formic acid
# How it was run: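 A Zorbax Extend-C18 column (2.1 × 50 mm, 1.8 μm) run at 100 μL/min with water and acetonitrile, both containing 0.1% formic acid, separated mixtures of ~100 pure standards. The HPLC was coupled to a quadrupole time-of-flight mass spectrometer operated in positive and negative ionization mode, with dead and dwell volumes of 40 μL and 900 μL. Each retention time was taken from a computationally picked adduct peak that was then manually inspected.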
row,SMILES,RP-LC retention time
1,O=C(CN1CCC2(CC1)N=C(c1ccc(Br)cc1)C(=O)N2)Nc1ccc(F)cc1,700 s
2,Cc1cccc(S(=O)(=O)N2CCC(CN3CCCCCC3)CC2)c1,672 s
3,O=C(C1COc2ccccc2O1)N1CCCC(c2nnc(-c3ccccc3F)s2)C1 (stereo not given),922 s
4,CN1c2ccc(F)cc2C(=O)NC12CCN(C(=O)c1ccc(Cl)cc1)CC2,785 s
5,O=C(Cn1cnc2c(nnn2-c2ccc(Br)cc2)c1=O)NCc1ccco1,776 s
6,CCc1nncn1C1CCN(S(=O)(=O)c2cc(Cl)ccc2OC)CC1,709 s
7,O=C(NCc1cccnc1-c1ccccc1)c1cccc(Br)c1,692 s
8,Cc1ccc(CNC(=O)NC2CCN(C(=O)N3C[C@H]4C[C@H](C3)[C@H]3CCCC(=O)N3C4)CC2)cc1,681 s
9,Cc1ccc(-c2nnc(N3CCC(C(=O)NCc4ccc5c(c4)OCO5)CC3)o2)cc1,838 s
10,CC(CN1CC(=O)NC(=O)C1)N1CC(=O)NC(=O)C1 (stereo not given),530 s
11,CSc1ccc(CNC(=O)CCc2c(-c3ccc(Br)cc3)nc3ccccn23)cc1,714 s
12,Brc1cccc(-c2nnc(Cc3nc(-c4ccncc4)no3)o2)c1,854 s
13,O=C(Cc1ccsc1)N1CCn2c(nnc2-c2ccccc2)C1,671 s
14,COc1cc2c(c(OC)c1O)C(=O)CO2,642 s
15,Cc1nn(CC(=O)N2CCN(c3ccc(F)cc3)CC2)c(=O)c2noc(C)c12,751 s
16,O=c1c2cc(-c3ccc(Cl)cc3)nn2ccn1Cc1ccc(F)cc1,1120 s
17,COc1ccc(C(=O)N2CC(n3cc(COCC4CC4)nn3)C2)cn1,679 s
18,COc1cc(CCC(=O)N2CCNc3ccccc3C2)cc(OC)c1OC,710 s
19,COCCN1CC2(CCN(S(=O)(=O)c3ccccc3Cl)CC2)C1c1ccccc1 (stereo not given),719 s
20,COc1cccc(-c2noc(Cn3cnc4c(oc5ccccc54)c3=O)n2)c1,938 s
21,Cc1ccccc1CN1C(=O)CN(S(C)(=O)=O)CC1(C)C(=O)NCc1ccccc1 (stereo not given),838 s
22,O=C(NC(Cc1ccccc1)c1nc2ccccc2[nH]1)c1cccs1 (stereo not given),607 s
23,Cc1noc2ncnc(N3CCCC(C(=O)N4CCC(Cc5ccccc5)CC4)C3)c12 (stereo not given),986 s
24,CCN1CCCn2cc(S(=O)(=O)NCc3cccc(F)c3)cc2C1=O,754 s
25,COc1cccc(Cn2nnc(C(=O)O)c2-c2cccc(OC)c2)c1,782 s
26,Cc1nn2c(S(=O)(=O)N3CCCCC3)c(C(C)C)nc2s1,911 s

# Second part, the molecule after the results:
row,RP-LC retention time,SMILES
1,682 s,CCC(C)N(CCNC(=O)Cc1noc2ccc(C)cc12)Cc1ccco1 (stereo not given)
2,734 s,COc1cccc(CNC(=O)C2CCCN(c3ncnc4c3oc3ccccc34)C2)c1 (stereo not given)
3,685 s,CC(=O)Nc1nc(C)c(-c2ccc(Cl)c(S(=O)(=O)NCCO)c2)s1
4,922 s,CC(C)n1nccc1-c1csc(S(=O)(=O)N2CCC3(CC2)OCCO3)c1
5,644 s,CC(=O)Nc1cc(NC(C)=O)ncn1
6,688 s,CC(=O)Nc1ccc(-n2cnc(C(=O)N3CCN(c4ccc(F)cc4)CC3)c2)nc1
7,632 s,O=C(NC1CC1)C1CCCN(c2ncnc3c2oc2ccccc23)C1 (stereo not given)
8,704 s,Cc1ccc(C(=O)CC2(O)C(=O)Nc3ccccc32)cc1 (stereo not given)
9,684 s,CCCNC(=O)C1CCCN(c2nc3ncn(CC(=O)Nc4ccc(F)cc4F)c(=O)c3s2)C1 (stereo not given)
10,611 s,O=C(CSc1ccc(N2CCCC(C(=O)NC3CC3)C2)nn1)Nc1cccc(F)c1 (stereo not given)
11,583 s,OC[C@H]1O[C@@H](n2cnc3c(NC4CCCCC4)ncnc32)C(O)[C@H]1O (stereo not given in full)
12,644 s,CNC(=O)C1CCCN(c2nc3ncn(CC(=O)Nc4cc(F)ccc4C)c(=O)c3s2)C1 (stereo not given)
13,682 s,CCNc1nc(C)cc(N2CCN(C(=O)Nc3ccc(Cl)cc3)CC2)n1
14,635 s,CC1CCN(CCNC(=O)c2nc(CCS(=O)(=O)c3ccccc3)no2)CC1
15,751 s,CCN1CCn2cc(S(=O)(=O)Nc3cc(C)ccc3F)cc2C1=O
16,640 s,CCN1CCN(C(=O)CSc2nccnc2Sc2ccccc2)CC1
17,783 s,O=C(NCCc1c[nH]c2ccccc12)C(=O)NCc1cccs1
18,698 s,COC(=O)c1ccc(NC(=O)Cc2csc(Nc3ccc(S(C)(=O)=O)cc3)n2)cc1
19,821 s,Cc1nn(-c2ccccc2)c2c1N(CC(=O)NCCC(C)C)C(=O)CS2
